According to the supplement of paper PMC10307832:

How the values were obtained:
Test in all cases: relative viability (nuclei count vs DMSO), 5 days (fraction); higher = more cells survive
Ricolinostat = compound: O=C(CCCCCCNC(=O)c1cnc(N(c2ccccc2)c2ccccc2)nc1)NO [Ricolinostat]
Summary of the method: (§1)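 Lung cancer cell lines in 1536-well plates were exposed by pinning to five library-drug doses (not always all listed) √10 apart, following an overnight hold at 37 °C. MetaXpress counted Hoechst-stained nuclei from 4× images taken after 5 days without medium change. Viability is the median ratio of treated-well to vehicle-well nuclei across plates. Plates required control CV below 25% and at least one doubling.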

TGX 221 = compound: CC1=CN2C(=O)C=C(N=C2C(=C1)C(C)NC3=CC=CC=C3)N4CCOCC4 [TGX 221]
Summary of the method: as §1

[1] = compound: C1=CC=C(C(=C1)C2=CC=C(C=C2)C3=CSC4=C3C(=C(C(=O)N4)C#N)O)O
Summary of the method: as §1

Cell Line	relative viability (Ricolinostat; 0.08 µM)	relative viability (Ricolinostat; 0.253 µM)	relative viability (Ricolinostat; 0.8 µM)	relative viability (Ricolinostat; 2.53 µM)	relative viability (TGX 221; 0.08 µM)	relative viability (TGX 221; 0.253 µM)	relative viability (TGX 221; 0.8 µM)	relative viability (TGX 221; 2.53 µM)	relative viability (TGX 221; 8 µM)	relative viability ([1]; 0.08 µM)	relative viability ([1]; 0.253 µM)	relative viability ([1]; 0.8 µM)	relative viability ([1]; 2.53 µM)	relative viability ([1]; 8 µM)
201T	0.876	0.978	1.02	0.93	0.911	0.959	0.979	0.865	0.876	0.945	0.964	0.932	0.94	1.02
A549	0.792	0.945	0.926	0.971	0.954	0.884	0.953	0.927	0.867	0.908	1.19	1.02	0.977	0.675
A-427	0.714	1.01	0.908	0.849	0.949	0.91	0.971	0.893	1	0.913	1.02	1.05	1.04	1
ABC-1	1	0.996	0.846	0.88	0.827	0.924	0.979	1.02	0.922	0.854	0.866	1.01	0.874	0.881
BEN	0.743	0.966	0.754	0.694	0.914	0.856	0.918	0.899	0.937	0.883	0.951	0.966	0.999	0.811
CAL-12T	0.835	0.953	0.953	1.01	0.963	0.936	0.992	0.917	1.05	0.894	1.24	0.946	0.929	0.747
COR-L23	0.942	0.895	0.844	0.707	1.01	1	0.97	1.02	0.989	1.13	1.07	1.1	1.13	0.704
COR-L 105	0.775	0.92	0.837	1.09	1.01	0.875	0.859	0.944	0.823	0.851	0.96	0.96	0.708	0.903
Calu-6	0.957	0.994	0.981	0.895	1.03	0.929	1.02	0.923	0.957	1.01	1.11	1.02	1.08	0.899
ChaGo-K-1	0.936	1	0.921	0.832	0.904	0.938	0.987	0.958	1.04	0.785	1.08	1.01	1.01	0.809
EBC-1	0.808	0.886	0.895	0.449	0.952	1.03	0.976	0.891	0.736	1.04	1.14	0.975	1.15	0.768
EKVX	0.764	0.918	0.907	0.964	0.865	0.888	0.907	0.838	0.855	0.961	1.13	0.971	0.967	0.851
EMC-BAC-2	0.887	0.93	0.83	0.484	0.958	0.926	0.908	0.977	0.913	0.957	0.897	0.876	0.927	0.893
EPLC-272H	0.673	0.942	0.719	0.577	0.911	0.837	1.02	0.727	0.978	0.688	0.773	0.926	1	0.788
H3255	0.809	0.911	0.838	0.783	0.946	0.917	0.93	0.872	1.01	0.995	1.09	0.882	1.01	0.858
HARA	0.878	1	0.866	0.567	0.997	0.947	0.964	0.942	1.05	0.768	1.98	0.999	0.751	0.856
HCC-15	0.847	0.94	0.983	0.938	0.945	0.965	0.9	0.916	0.969	0.958	1.14	1.04	1.04	0.904
HCC-44	1.01	0.966	0.962	0.77	0.991	1.03	1.03	0.99	1.03	1.03	1	0.997	0.956	0.991
HCC-78		1.03	0.8	0.637	0.769	0.856	0.785	0.722	0.76	0.85	1.23	1.15	0.966	0.832

Cell Line	relative viability (Ricolinostat; 0.08 µM)	relative viability (Ricolinostat; 0.253 µM)	relative viability (Ricolinostat; 0.8 µM)	relative viability (Ricolinostat; 2.53 µM)	relative viability (TGX 221; 0.08 µM)	relative viability (TGX 221; 0.253 µM)	relative viability (TGX 221; 0.8 µM)	relative viability (TGX 221; 2.53 µM)	relative viability (TGX 221; 8 µM)	relative viability ([1]; 0.08 µM)	relative viability ([1]; 0.253 µM)	relative viability ([1]; 0.8 µM)	relative viability ([1]; 2.53 µM)	relative viability ([1]; 8 µM)
HCC-366	0.984	1.03	1.03	0.769	0.942	0.999	1.03	0.957	1.01	0.829	1.08	1.07	1.01	0.638
HCC-827	0.946	1.02	1.01	0.991	0.982	1.03	1.07	1.04	0.983	1.03	1.05	1.08	1.07	1.11
HOP-62	0.932	0.987	1.03	0.913	0.965	1.06	1.04	1.09	1.09	1.08	1.12	1	1.08	0.82
IA-LM	0.657	0.924	0.797	0.777	0.883	0.96	1.07	0.981	0.966	0.725	1.45	1.04	1.15	0.655
LC-2-ad	0.866	0.964	0.946	0.683	0.962	1.01	1.01	1.02	0.92	0.824	1.05	0.898	1.04	0.906
LCLC-97TM1	0.809	1.06	0.997	0.855	0.97	0.76	1.02	0.863	0.924	0.895	1.34	1.02	1.08	1.03
LCLC-103H	0.778	0.957	1.04	1.08	0.903	0.983	0.878	0.928	0.959	1.02	0.984	1.05	0.984	1
LK-2	0.967	0.999	1	0.899	0.986	0.878	0.914	0.996	1.1	0.724	0.922	1.11	0.918	0.71
LOU-NH91		1.03	0.94	0.98	0.914	1	0.948	0.948	0.901	0.941	1.06	0.962	0.896	0.894
LU99A	0.877	0.926	0.865	0.641	0.859	0.857	0.896	0.89	0.981	0.984	0.905	0.95	0.89	0.911
LXF-289	0.994	0.972	1	0.968	1.03	0.98	1.03	0.984	1.04	0.936	1.02	1	1.06	0.969
NCI-H23	0.779	1.03	0.851	0.895	0.993	0.861	0.909	0.825	0.932	0.948	1.03	1.07	0.978	0.805
NCI-H322M		0.964	0.958	0.923	0.876	0.875	0.904	0.801	0.841	0.866	0.918	0.95	0.949	0.96
NCI-H358	0.726	0.914	1.05	1.04	0.914	0.88	0.914	1.02	0.756	0.905	0.937	1.04	0.907	0.716
NCI-H441	0.793	0.972	1.01	0.892	0.952	0.955	1.04	1.08	1.06	0.928	1.2	1.22	1.12	0.63
NCI-H460	0.95	0.968	0.96	0.989	0.968	0.96	0.977	0.945	0.925	0.963	1.05	1.02	1.06	0.742
NCI-H520		1.05	1.01	0.861	0.809	0.797	0.741	0.692	0.656	0.808	0.901	1.07	1.04	0.777
NCI-H522	0.997	0.996	0.928	0.915	0.909	0.795	1.17	0.927	1.01	0.889	0.962	1.13	0.966	0.966
NCI-H596	0.999	1.1	0.987	0.851	1.03	0.953	1.02	0.94	0.997	0.777	1.22	1.05	0.98	0.841
